The assay relates to Huh7 psiCHECK-miR122 Renilla luciferase reporter, 48 h. In words: miR-122 inhibitors in Huh7 reporter cells, dose response, cell-based, Huh7 psiCHECK-miR122, Renilla luciferase, cherry-pick (AID 652053).
`O=C(Nc1cc(S(=O)(=O)Nc2ccccc2F)ccc1Cl)c1ccc(F)cc1F`: the AC40 was 7.6 µM.

For `COc1ccc(CN(C(=O)c2ccc(-c3ccccc3)[nH]2)C(C(=O)NCC2CCCO2)c2ccc(C)o2)cc1` (stereo unspecified), the AC40 is 5.58 µM. Under `COc1ccc(NS(=O)(=O)c2ccc(NC(=S)NC(=O)C(C)C)cc2)cc1` stands 1.34 µM; under `C=CCNC(=O)c1ccccc1NC(=O)c1ccc(Cl)c(S(=O)(=O)Nc2cc(C)ccc2C)c1`, 1.38 µM.

With `CCOc1ccc(NS(=O)(=O)c2cc(C)c(C)cc2C)cc1`, the AC40 is 2.04 µM. Consider `CCc1nnc(NC(=O)c2ccc(NS(=O)(=O)c3ccccc3)cc2)s1`, for which the AC40 was 2.68 µM. Under `Cc1nc2ccc(S(=O)(=O)Nc3ccccc3C)cc2s1` stands 22.2 µM; under `CCOc1ccc(-c2cc(N)n(S(=O)(=O)c3ccc(OC)c(OC)c3)n2)cc1`, 4.11 µM; under `C[C@@H]1CN([C@@H](C)CO)C(=O)c2cccc(NC(=O)C3CCCCC3)c2O[C@@H]1CN(C)Cc1ccc(C(=O)Nc2ccccc2N)cc1`, 6.92 µM. For `CC(=O)c1ccc(NS(=O)(=O)c2ccc3c(c2)N(C)CCO3)cc1`, the AC40 is 3.6 µM. For the compound `CCOc1ccc(Br)cc1S(=O)(=O)NC1CCCC1`, the AC40 was 1.29 µM. Regarding `COc1ccc(-c2cc(C(=O)N(C)Cc3ccccc3F)c3ccccc3n2)cc1OC`, the AC40 was 14.7 µM.

`COc1ccc(S(=O)(=O)N(C)C[C@H]2Oc3ccc(NC(=O)Nc4ccc(C(F)(F)F)cc4)cc3C(=O)N([C@H](C)CO)C[C@H]2C)cc1`: the AC40 is 1.81 µM. The value for `COc1ccc(NC(C)=O)cc1S(=O)(=O)Nc1ccc(S(=O)(=O)N2CCCCC2)cc1` was 2.62 µM; that for `CC(=O)c1c(C)[nH]c(C(=O)N(CCc2ccccc2)Cc2ccccc2)c1C` was 30.8 µM; that for `C=C(C)CN(CC)C(=O)COc1ccc(S(=O)(=O)Nc2ccc(OC)cc2)cc1` was 7.78 µM. For the compound `Cc1cc(C)nc(N/C(=N\S(=O)(=O)Cc2ccccc2)Nc2ccccc2Br)n1`, the AC40 was 8.51 µM. With `CN1c2ccc(-c3cccc(F)c3)cc2[C@H]2[C@H](CCN2S(=O)(=O)c2cccc(F)c2)[C@H]1CO`, the AC40 is 6.4 µM. Turning to `O=c1c2ccccc2nnn1CSc1nnc(C2COc3ccccc3O2)n1-c1ccccc1` (stereo unspecified), the AC40 is 19.2 µM. The value for `Cc1ccccc1C(=O)Oc1ccc(Br)cc1C(=S)N1CCCC1` was 13.3 µM; that for `Cc1ccc(C2CN(C)C3(C(=O)Nc4ccccc43)C23COc2ccccc2C3=O)cc1` (stereo unspecified) was 1.08 µM.

Regarding `CN1C(=O)c2cc(NC(=O)Cc3ccccc3)ccc2OC[C@@H]2O[C@@H](CC(=O)NCC3CC3)CC[C@@H]21`, the AC40 was 0.732 µM. For `C[C@@H]1CN([C@H](C)CO)C(=O)c2cccc(NS(=O)(=O)c3ccccc3)c2O[C@@H]1CN(C)Cc1ccc(C(=O)Nc2ccccc2N)cc1`, the AC40 is 17.2 µM. Consider `Cc1cc(C(=O)Nc2cccc3c2O[C@@H](CN(C)CC2CCCCC2)[C@@H](C)CN([C@H](C)CO)C3=O)n(C)n1`, for which the AC40 is 2.41 µM. With `COc1ccc(-c2ccc3c(c2)CN(C(=S)NCCc2ccccc2)Cc2cnnn2-3)cc1`, the AC40 is 2.2 µM.

Consider `C[C@@H]1CN([C@@H](C)CO)C(=O)c2cccc(NS(=O)(=O)c3ccccc3)c2O[C@@H]1CN(C)Cc1ccc(C(=O)Nc2ccccc2N)cc1`, for which the AC40 was 9.09 µM.

Regarding `COc1ccc(C2=Nn3c(nnc3-c3ccccc3OC)SC2)cc1OC1CCOC1` (stereo unspecified), the AC40 is 8.29 µM. The value for `COc1ccc(NS(=O)(=O)c2cc(NC(=O)c3ccco3)ccc2N2CCCCC2)cc1` was less than 0.26 µM.

With `C[C@H](CO)N1C[C@H](C)[C@@H](CN(C)Cc2ccccc2)Oc2c(NS(=O)(=O)c3ccccc3)cccc2C1=O`, the AC40 is 3.64 µM. As for `Cc1ccc(S(=O)(=O)Nc2ccc(-n3cnnn3)cc2)c(C)c1`, the AC40 was 0.759 µM.

Turning to `COc1ccc(CN(C)C[C@H]2Oc3c(NC(=O)NC4CCCCC4)cccc3C(=O)N([C@H](C)CO)C[C@@H]2C)cc1`, the AC40 was 5.06 µM. As for `CCOC(=O)c1c(S(=O)(=O)Nc2cccc(Cl)c2)c(C)n(C)c1C`, the AC40 was 1.08 µM. In the case of `COc1cc(NS(=O)(=O)c2ccc(C)c(C)c2)c(OC)cc1Cl`, the AC40 was 15.2 µM. `CC1CCCCN1C(=O)c1cc2nc(-c3ccccc3)cc(-c3ccccc3)n2n1` (stereo unspecified): the AC40 is 2.46 µM.

On to `Cc1ccc(S(=O)(=O)NCCN2CCOCC2)c(C)c1C`, for which the AC40 is 6.26 µM.

With `O=C(NCc1ccco1)c1ccc(Cl)c(S(=O)(=O)Nc2ccccc2)c1`, the AC40 was 4.59 µM. Under `Cc1ccc(SCCNC(=O)c2ccc(C)c(S(=O)(=O)Nc3cccc(C)c3)c2)cc1` stands 3.74 µM; under `O=C(c1ccc(NS(=O)(=O)c2ccc3c(c2)OCCO3)cc1)N1CCCCC1`, 14.8 µM; under `O=S(=O)(Nc1ccccc1)c1ccc(Oc2ncc(C(F)(F)F)cc2Cl)cc1`, 21.6 µM.

Regarding `N#Cc1ccc(NC(=S)N2CCC3CC2c2cc(-c4ccc5c(c4)OCO5)ccc23)cc1` (stereo unspecified), the AC40 is 0.31 µM. Consider `CC(C)(C)NS(=O)(=O)c1ccc(OCC(=O)Nc2ccc3c(c2)OCCO3)cc1`, for which the AC40 is 14.7 µM.

For the compound `O=S(=O)(Nc1ccc(S(=O)(=O)N2CCCC2)cc1)c1ccccc1Br`, the AC40 is 4.34 µM.

Consider `Cc1sc2ncn(CC(=O)N(CC(=O)NC3CCCC3)Cc3cccs3)c(=O)c2c1C`, for which the AC40 was 20 µM.

`COc1ccc(S(=O)(=O)Nc2cc(C)c(O)c(S(=O)(=O)c3ccccc3)c2)cc1`: the AC40 was 29.6 µM. Regarding `NC(=O)Cn1cc(/C=N\NS(=O)(=O)c2ccc(Cl)cc2)c2ccccc21`, the AC40 is 3.75 µM. `O=C(Nc1ccccc1)N1C[C@H]2[C@@H](c3ccccc31)[C@@H](CO)N2C(=O)c1ccccn1`: the AC40 is 33.7 µM. `CCC(C)(C)NC(=O)C(c1cccn1C)N(C(=O)Cn1nnc2ccccc21)c1ccc(OC)cc1OC` (stereo unspecified): the AC40 was 21 µM. Take `CCOC(=O)c1c(C)[nH]c(C)c1S(=O)(=O)NCCc1ccc(SC)cc1`: the AC40 was 0.686 µM. The value for `CC(=O)N1CC(C)Sc2ccc(S(=O)(=O)NCc3ccc(F)cc3)cc21` (stereo unspecified) was 4.49 µM; that for `C[C@H]1CN([C@@H](C)CO)C(=O)c2cccc(NC(=O)C3CC3)c2O[C@@H]1CN(C)Cc1ccc(C(F)(F)F)cc1` was 0.42 µM; that for `O=S(=O)(NCc1cccs1)c1cccc(S(=O)(=O)N2CCCCC2)c1` was 6.72 µM. With `CCc1c(C(=O)Nc2ccc(OC)cc2)[nH]c(C)c1C(C)=O`, the AC40 was 5.6 µM. Consider `NC(=O)Cn1cc(/C=N\NS(=O)(=O)c2ccc(F)cc2)c2ccccc21`, for which the AC40 was 3.22 µM. For the compound `C[C@@H]1CN([C@H](C)CO)C(=O)Cc2cc(NS(=O)(=O)c3ccc(Cl)cc3)ccc2O[C@@H]1CN(C)C(=O)Nc1ccc(C(F)(F)F)cc1`, the AC40 is 6.38 µM. As for `COc1cccc(CC(=O)Nc2ccc(N3CCOCC3)c(S(=O)(=O)Nc3ccccc3OC)c2)c1`, the AC40 was 1.48 µM. Regarding `CCOc1cc(C)c(S(=O)(=O)Nc2ccc(Cl)cn2)cc1C`, the AC40 is 4.04 µM.

Consider `S=C(Nc1ccccc1Cl)NC1CCCCCC1`, for which the AC40 was 17.2 µM.

For `COc1ccc(NC(=O)c2cccc(S(=O)(=O)Nc3ccc(Br)cc3)c2)cn1`, the AC40 is 2.11 µM. In the case of `COc1ccc(C)cc1NS(=O)(=O)c1ccc2c(c1)CCN2C(C)=O`, the AC40 was 8.33 µM.

Turning to `Cc1cc(C)cc(NS(=O)(=O)c2ccc(NC(=S)NC(=O)c3cccs3)cc2)c1`, the AC40 is less than 0.26 µM.

`Cc1ccc(S(=O)(=O)Nc2cccc3c2O[C@H](CN(C)Cc2ccc(C(=O)Nc4ccccc4N)cc2)[C@H](C)CN([C@H](C)CO)C3=O)cc1`: the AC40 was 10.8 µM. Regarding `CCN(CC)S(=O)(=O)c1ccc(C)c(NCC(=O)Nc2ccc(C#N)c(Cl)c2)c1`, the AC40 is 1.77 µM. Take `Cc1ccc(C)c(S(=O)(=O)Nc2cc3c4c(c2)CC(=O)N4CCC3)c1`: the AC40 is 1.88 µM. As for `O=C(Cc1ccccc1)N1C[C@H]2[C@@H](c3ccccc31)[C@@H](CO)N2C(=O)c1ccc(F)cc1`, the AC40 is 5.37 µM.

`CCCNC(=O)NNC(=O)c1cc(-c2ccc3c(c2)OCO3)nc2ccccc12`: the AC40 is 2.65 µM. As to `COc1ccc(F)cc1S(=O)(=O)NC1CCCCCC1`, the AC40 is 5.11 µM.

Take `Cc1ccc(C2=NN3C(C(=O)c4ccccc4)Oc4ccccc4C3C2)cc1` (stereo unspecified): the AC40 is 4.05 µM.

Take `CC(C)CC(=O)Nc1cccc(-c2nc3ccccc3[nH]2)c1`: the AC40 is 15.6 µM.

Turning to `COc1ccc(NS(=O)(=O)c2ccc(N3CCOCC3)c(NC(=O)c3ccc(F)cc3)c2)cc1`, the AC40 was 7.87 µM. On to `O=C(Nc1nc2ccc(S(=O)(=O)N3CCCC3)cc2s1)C1CCCCC1`, for which the AC40 is 14.8 µM. Take `C[C@H](CO)N1C[C@H](C)[C@H](CN(C)Cc2ccc(C(=O)Nc3ccccc3N)cc2)Oc2c(NS(=O)(=O)c3ccccc3)cccc2C1=O`: the AC40 was 16.1 µM. `COc1ccc(NS(=O)(=O)c2ccc(N3CCOCC3)c(NC(=O)c3cccc(F)c3)c2)cc1`: the AC40 was 8.96 µM. `CC1=CC(C)(C)N(S(=O)(=O)c2ccc(C)cc2)c2cc(C)ccc21`: the AC40 was 3.72 µM. As for `O=S(=O)(c1ccccc1)c1cc(O)ccc1O`, the AC40 is 11.5 µM.

Consider `COc1ccc(NS(=O)(=O)c2cc(NC(=O)[C@@H](NC(=O)c3ccccc3)C(C)C)ccc2C)cc1`, for which the AC40 was 2.3 µM.

Consider `CCOc1ccc(S(=O)(=O)NCc2ccco2)c2ccccc12`, for which the AC40 is 3.06 µM. For `C[C@H](CO)N1C[C@H](C)[C@@H](CN(C)Cc2ccc(C(F)(F)F)cc2)Oc2ccc(N(C)C)cc2C1=O`, the AC40 was 0.891 µM. On to `CC1CCCC(NS(=O)(=O)c2ccc3c(c2)OCCO3)C1C` (stereo unspecified), for which the AC40 is 3.1 µM. Take `O=S(=O)(Nc1ccc2cn[nH]c2c1)c1cc(Br)ccc1Br`: the AC40 is 4.32 µM. Under `Cc1ccc(Cn2c(NS(=O)(=O)c3ccccc3)nc3ccccc32)cc1` stands 2 µM; under `CCOC(=O)C1CCCCN1C(=O)c1cc2ccc(OC)cc2c2cc(OC)c(OC)cc12` (stereo unspecified), 4.65 µM. `COc1ccc(OC)c(S(=O)(=O)N/N=C\c2ccc3c(c2)OCO3)c1`: the AC40 was 0.508 µM. The value for `O=C1C(Oc2ccccc2)C(c2ccc3c(c2)OCO3)N1CCc1ccc(F)cc1` (stereo unspecified) was 8.01 µM. As to `Cc1ccccc1C(=O)Nc1ccc(Br)c(C)n1`, the AC40 was 3.17 µM. The value for `COc1ccc(OC)c(-c2csc(NC(=O)Cc3ccccc3F)n2)c1` was 8.49 µM; that for `COc1ccccc1CNC(=O)C[C@@H]1CC[C@H]2[C@H](COc3ccc(NC(C)=O)cc3C(=O)N2C)O1` was 22 µM.

(Values after PubChem BioAssay AID652053 (Broad Institute, 2013).)
